Read-outs that look alike come from different tables or passages of the source.
How the values were obtained:
[1] = target: GDP-bound protein (aa 1-169), containing both G12C and C118A amino acid substitutions (Homo sapiens, UniProt P01116, C118A/G12C); assay: Coupled Nucleotide Exchange Assay (SOS-mediated nucleotide exchange, AlphaScreen); format: biochemical; conditions: 2 hours compound pre-incubation
Procedure, shortened: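 AlphaScreen signal after SOS (aa 564-1049)/GTP-driven exchange (1 h) on GDP-loaded His-[…] G12C/C118A (aa 1-169), following a 2 h compound pre-incubation in HEPES pH 7.4 buffer with 10 mM MgCl2 and 0.01% Triton X-100. IC50s fitted by 4-parameter logistic model.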

[2] = tested on: Phosphorylation of ERK½ in MIA PaCa-2 cells; assay: Phospho-ERK½ MSD Assay in MIA PaCa-2 cells; format: cell-based; conditions: 4 hours compound treatment, 10 ng/mL EGF for 10 min, read-out: p-ERK IC50 (MIA PaCa-2)
Procedure, shortened: (§1)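 MIA PaCa-2 or A549 cells (25,000/well, RPMI with 10% FBS) exposed to compound titration for 4 h at 37 °C, then stimulated with 10 ng/mL EGF for 10 min and lysed in RIPA. Phospho-ERK1/2 quantified by MSD whole-cell lysate immunoassay; IC50 from 4-parameter logistic fit.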

[3] = tested on: Phosphorylation of ERK½ in A549 cells; assay: Phospho-ERK½ MSD Assay in A549 cells; format: cell-based; conditions: 4 hours compound treatment, 10 ng/mL EGF for 10 min, read-out: p-ERK IC50 (A549)
Procedure, shortened: as §1

[4] = Homo sapiens, MIA PaCa-2, MIA PaCa-2 cells

Sequence of GDP-bound protein (aa 1-169), containing both G12C and C118A amino acid substitutions (P01116 1-169 isoform P01116-2 G12C/C118A): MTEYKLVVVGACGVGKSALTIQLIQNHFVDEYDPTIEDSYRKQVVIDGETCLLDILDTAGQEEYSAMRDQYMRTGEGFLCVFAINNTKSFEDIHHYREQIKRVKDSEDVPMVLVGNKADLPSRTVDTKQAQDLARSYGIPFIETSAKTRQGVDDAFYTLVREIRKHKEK

| Coupled exchange IC50 [1] [µM] | IC50 [2, 4] [µM] | IC50 ([3]; Homo sapiens, A549, A549 cells) [µM] | IC50 ([2]; MIA PaCa-2 cells) [µM] | IC50 ([3]; A549 cells) [µM] | SMILES |
| --- | --- | --- | --- | --- | --- |
| 0.095 | 0.017 | > 33.3 |  |  | C=CC(=O)N1CCN(c2nc(=O)n(-c3c(CC)cccc3CC)c3nc(-c4c(O)cccc4F)c(Cl)cc23)[C@@H](C)C1 [Example 8-4, 6-chloro-1-(2,6-diethylphenyl)-7-(2-fluoro-6-hydroxyphenyl)-4-((2S)-2-methyl-4-(2 propenoyl)-1-piperazinyl)pyrido[2,3-d]pyrimidin-2(1H)-one] |
| 0.400 | 2.41 | > 100 |  |  | C=CC(=O)N1CCN(c2nc(=O)n(-c3cnccc3C3CC3)c3cc(-c4c(O)cccc4F)c(Cl)cc23)CC1 [Example 8-5, 6-chloro-1-(4-cyclopropyl-3-pyridinyl)-7-(2 fluoro-6-hydroxyphenyl)-4-(4-(2-propenoyl)-1-piperazinyl)-2(1H)-quinazolinone] |
| 0.100 |  |  | 0.012 | 69.9 | C=CC(=O)N1CCN(c2nc(=O)n(-c3ccccc3C(C)C)c3nc(-c4c(O)cccc4F)c(Cl)cc23)[C@@H](C)C1 [Example 8-6, 6-chloro-7-(2-fluoro-6-hydroxyphenyl)-4-((2S)-2-methyl-4-(2-propenoyl)-1-piperazinyl)-1-(2-(2-propanyl)phenyl)pyrido[2,3-d]pyrimidin-2(1H)-one] |
| 0.155 | 0.052 | 57.4 |  |  | C=CC(=O)N1CCN(c2nc(=O)n(-c3ccccc3C(C)C)c3cc(-c4cc(O)cc(Cl)c4Cl)c(Cl)cc23)[C@@H](C)C1 [Example 9-1, 6-Chloro-7-(2,3-dichloro-5-hydroxyphenyl)-4-((2S)-2-methyl-4-(2-propenoyl)-1-piperazinyl)-1-(2-(2-propanyl)phenyl)-2(1H)-quinazolinone] |
| 0.113 | 0.035 | 66.1 |  |  | C=CC(=O)N1CCN(c2nc(=O)n(-c3ccccc3C(C)C)c3cc(-c4cc(N)ccc4Cl)c(Cl)cc23)[C@@H](C)C1 [Example 9-3, 7-(5-amino-2-chlorophenyl)-6-chloro-4-((2S)-2-methyl-4-(2-propenoyl)-1-piperazinyl)-1-(2-(2-propanyl)phenyl)-2(1H)-quinazolinone] |
| 1.33 | 3.92 | > 100 |  |  | C=CC(=O)N1CCN(c2nc(=O)n(-c3cccc(C#N)c3)c3cc(-c4c(O)cccc4F)c(Cl)cc23)CC1 [Example 9-5, 3-(6-chloro-7-(2-fluoro-6-hydroxyphenyl)-2-oxo-4-(4-(2-propenoyl)-1-piperazinyl)-1(2H)-quinazolinyl)benzonitrile] |
| 0.237 | 3.51 | > 100 |  |  | C=CC(=O)N1CCN(c2nc(=O)n(-c3ccncc3C3CC3)c3cc(-c4c(O)cccc4F)c(Cl)cc23)CC1 [Example 9-6, 6-chloro-1-(3-cyclopropyl-4-pyridinyl)-7-(2-fluoro-6-hydroxyphenyl)-4-(4-(2-propenoyl)-1-piperazinyl)-2(1H)-quinazolinone] |
| 0.147 | 0.136 | 65.6 |  |  | C=CC(=O)N1CCN(c2nc(=O)n(-c3ccncc3C3CC3)c3cc(-c4c(C)ccc5[nH]ncc45)c(Cl)cc23)[C@@H](C)C1 [Example 9-9, 6-chloro-1-(3-cyclopropyl-4-pyridinyl)-7-(5-methyl-1H-indazol-4-yl)-4-((2S)-2-methyl-4-(2-propenoyl)-1-piperazinyl)-2(1H)-quinazolinone] |
| 0.101 | 0.117 | 66.5 |  |  | C=CC(=O)N1CCN(c2nc(=O)n(-c3ccccc3C(C)C)c3cc(-c4cccc(Cl)c4Cl)c(Cl)cc23)[C@@H](C)C1 [Example 9-10, 6-chloro-7-(2,3-dichlorophenyl)-4-((2S)-2-methyl-4-(2-propenoyl)-1-piperazinyl)-1-(2-(2-propanyl)phenyl)-2(1H)-quinazolinone] |
| 0.093 | 0.147 | 64 |  |  | C=CC(=O)N1CCN(c2nc(=O)n(-c3ccccc3C(C)C)c3cc(-c4ccccc4Cl)c(Cl)cc23)[C@@H](C)C1 [Example 9-11, 6-chloro-7-(2-chlorophenyl)-4-((2S)-2-methyl-4-(2-propenoyl)-1-piperazinyl)-1-(2-(2-propanyl)phenyl)-2(1H)-quinazolinone] |
| 1.32 | 1.29 | > 100 |  |  | C=CC(=O)N1CCN(c2nc(=O)n(-c3c(CC)cccc3CC)c3nc(-n4nnc5ccccc54)c(Cl)cc23)[C@@H](C)C1 [Example 9-12, 7-(1H-benzotriazol-1-yl)-6-chloro-1-(2,6-diethylphenyl)-4-((2S)-2-methyl-4-(2-propenoyl)-1-piperazinyl)pyrido[2,3-d]pyrimidin-2(1H)-one] |
| 0.306 | 0.078 | 12.8 |  |  | C=CC(=O)N1CCN(c2nc(=O)n(-c3ccccc3C(C)C)c3cc(-c4cc(O)cc5ccccc45)c(Cl)cc23)CC1 [Example 9-13, 6-chloro-7-(3-hydroxy-1-naphthalenyl)-1-(2-(2-propanyl)phenyl)-4-(4-(2-propenoyl)-1-piperazinyl)-2(1H)-quinazolinone] |
| 1.10 | 9.33 | > 100 |  |  | C=CC(=O)N1CCN(c2nnc(-c3cc(Cl)ccc3C)c3cc(-c4c(O)cccc4F)c(Cl)cc23)CC1 [Example 10-3, 1-(4-(7-chloro-4-(5-chloro-2-methylphenyl)-6-(2-fluoro-6-hydroxyphenyl)-1-phthalazinyl)-1-piperazinyl)-2-propen-1-one] |
| 1.20 | 6.07 | > 100 |  |  | C=CC(=O)N1CCN(c2nnc(-c3cnccc3C)c3cc(-c4c(O)cccc4F)c(Cl)cc23)CC1 [Example 10-6, 1-(4-(7-chloro-6-(2-fluoro-6-hydroxyphenyl)-4-(4-methyl-3-pyridinyl)-1-phthalazinyl)-1-piperazinyl)-2-propen-1-one] |
| 0.533 | 9.2 | > 100 |  |  | C=CC(=O)N1CCN(c2nnc(-c3c(C)cccc3C)c3cc(-c4c(O)cccc4F)c(Cl)cc23)CC1 [Example 10-7, 1-(4-(7-Chloro-4-(2,6-dimethylphenyl)-6-(2-fluoro-6-hydroxyphenyl)-1-phthalazinyl)-1-piperazinyl)-2-propen-1-one] |
| 1.34 | 12.9 | > 100 |  |  | C=CC(=O)N1CCN(c2nnc(-c3cccnc3C)c3cc(-c4c(O)cccc4F)c(Cl)cc23)CC1 [Example 10-8] |
| 1.68 | 33.6 | > 100 |  |  | C=CC(=O)N1CCN(c2nnc(-c3cccc4[nH]ccc34)c3cc(-c4c(O)cccc4F)c(Cl)cc23)CC1 [Example 10-9, 1-(4-(7-chloro-6-(2-fluoro-6-hydroxyphenyl)-4-(1H-indol-4-yl)-1-phthalazinyl)-1-piperazinyl)-2-propen-1-one] |
| 0.359 | 6.85 | > 100 |  |  | C=CC(=O)N1CCN(c2nnc(-c3ccccc3C3CC3)c3cc(-c4c(O)cccc4F)c(Cl)cc23)CC1 [Example 10-10, 1-(4-(7-chloro-4-(2-cyclopropylphenyl)-6-(2-fluoro-6-hydroxyphenyl)-1-phthalazinyl)-1-piperazinyl)-2-propen-1-one] |
| 0.516 | 14.7 | > 100 |  |  | C=CC(=O)N1CCN(c2nnc(-c3ccccc3Cl)c3cc(-c4c(O)cccc4F)c(Cl)cc23)CC1 [Example 10-11, 1-(4-(7-chloro-4-(2-chlorophenyl)-6-(2-fluoro-6-hydroxyphenyl)-1-phthalazinyl)-1-piperazinyl)-2-propen-1-one] |
| 0.912 | 72.6 | > 100 |  |  | C=CC(=O)N1CCN(c2nnc(-c3c(C)ccc4[nH]ncc34)c3cc(-c4c(O)cccc4F)c(Cl)cc23)CC1 [Example 10-12, 1-(4-(7-chloro-6-(2-fluoro-6-hydroxyphenyl)-4-(5-methyl-1H-indazol-4-yl)-1-phthalazinyl)-1-piperazinyl)-2-propen-1-one] |

| SMILES | Coupled exchange IC50 [1] [µM] | IC50 [2, 4] [µM] | IC50 ([3]; Homo sapiens, A549, A549 cells) [µM] | IC50 ([2]; MIA PaCa-2 cells) [µM] | IC50 ([3]; A549 cells) [µM] |
| --- | --- | --- | --- | --- | --- |
| C=CC(=O)N1CCN(c2nnc(-c3ccccc3OC)c3cc(-c4c(O)cccc4F)c(Cl)cc23)CC1 [Example 10-2, 1-(4-(7-chloro-6-(2-fluoro-6-hydroxyphenyl)-4-(2-methoxyphenyl)phthalazin-1-yl)piperazin-1-yl)prop-2-en-1-one] | 1.93 | 36.1 | > 100 |  |  |
| C=CC(=O)N1CCN(c2nnc(-c3ccccc3C(C)C)c3cc(-c4c(O)cccc4F)c(Cl)cc23)CC1 [Example 10-4, 1-(4-(7-chloro-6-(2-fluoro-6-hydroxyphenyl)-4-(2-(2-propanyl)phenyl)-1-phthalazinyl)-1-piperazinyl)-2-propen-1-one] | 0.235 | 3.47 | > 100 |  |  |
| C=CC(=O)N1CCN(c2nnc(-c3ccccc3CC)c3cc(-c4c(O)cccc4F)c(Cl)cc23)CC1 [Example 10-5, 1-(4-(7-chloro-4-(2-ethylphenyl)-6-(2-fluoro-6-hydroxyphenyl)-1-phthalazinyl)-1-piperazinyl)-2-propen-1-one] | 0.297 | 3.41 | > 100 |  |  |
